Assay results from patent publication US20250101027A1, “ORGANIC COMPOUND, LIGHT-EMITTING DEVICE, LIGHT-EMITTING APPARATUS, AND ELECTRONIC APPLIANCE” (SEMICONDUCTOR ENERGY LABORATORY CO., LTD., priority 2023, published 2025).
In brackets after ≈: the same amount, converted by molar mass.

Test: Solubility test in water by LC-MS analysis
Type: physicochemical
Conditions: for peak area value derived from the compound through the LC-MS analysis (solubility test in water): ultrasonic waves five minutes, filtrate diluted five times with acetonitrile, one atmosphere, room temperature
Protocol: Next, a solubility test of PrdP2Phen was performed. Note that the solubility test was conducted at a pressure of one atmosphere, at room temperature (RT).
In the LC-MS analysis, liquid chromatography (LC) separation was carried out with ACQUITY UPLC manufactured by Waters Corporation, and MS analysis (mass spectrometry) was carried out with Xevo G2 Tof MS manufactured by Waters Corporation. Acquity UPLC BEH C8 (2.1×100 mm, 1.7 μm) was used as a column for the LC separation. Acetonitrile was used for Mobile Phase A and a 0.1% aqueous solution of formic acid was used for Mobile Phase B. The injection amount of the sample was 5.0 μL. Note that in the analysis, the wavelength of a photodiode array detector was set to 263 nm±1 nm.
(§1) In a 5-mL sample bottle, I mg of PrdP2Phen was put and 1 mL of water was added thereto. This mixture was irradiated with ultrasonic waves for five minutes. This mixture was filtered through a membrane filter to remove the solid, and the resulting filtrate was diluted by five times with acetonitrile. The obtained solution was subjected to LC-MS analysis.
In a 5-mL sample bottle, 1 mg of Pyrrd-Phen was put and 2 mL of toluene was added thereto. This mixture was irradiated with ultrasonic waves for five minutes. After it was confirmed that the solid was completely dissolved, this solution was diluted by 5 times with acetonitrile, whereby the concentration of the solution was adjusted to 100 mg/L. This solution was diluted with a 3:7 toluene-acetonitrile mixed solvent, whereby a solution with a concentration of 20 mg/L, a solution with a concentration of 10 mg/L, and a solution with a concentration of 5 mg/L were prepared. The prepared solutions were subjected to LC-MS analysis, and the peak area values derived from Pyrrd-Phen, which were obtained at the respective solution concentrations, were used to form calibration curves.
Next, the water solubility of Pyrrd-Phen was measured.
as §1, with “bottle, 1” for “bottle, I”, “of Pyrrd-Phen” for “of PrdP2Phen”
Next, a solubility test of Hid-PrdPPhen was performed. Note that the solubility test was conducted at a pressure of one atmosphere at room temperature (RT).
In the LC-MS analysis, liquid chromatography (LC) separation was carried out with ACQUITY UPLC manufactured by Waters Corporation, and MS analysis (mass spectrometry) was carried out with Xevo G2 Tof MS manufactured by Waters Corporation. Acquity UPLC BEH C8 (2.1×100 mm, 1.7 μm) was used as a column for the LC separation. […]

[1] = 1 mg in 1 mL of water, filtered

Row | SMILES | peak area value derived from the compound through the LC-MS analysis (solubility test in water) [1] | water solubility (in words) (conclusion from LC-MS solubility test) | solubility at 5 min (thermodynamic from solid, from calibration curve and LC-MS signal intensity, 1 mg in 1 mL of water, sonicated, filtered) [µg/mL]
1 | c1cc(-c2ccc(N3CCCC3)cc2)c2ccc3c(N4CC5CCCCC5C4)ccnc3c2n1 (stereo not shown) [Hid-PrdPPhen, 4-(2,3,3a,4,5,6,7,7a-octahydro-1H-isoindol-2-yl)-7-[4-(I-pyrrolidinyl)phenyl]-1,10-phenanthroline] | failed to be obtained |  | 
2 | c1cc(-c2ccc(N3CCCC3)cc2)c2ccc3c(-c4ccc(N5CCCC5)cc4)ccnc3c2n1 [PrdP2Phen, 4,7-bis[4-(1-pyrrolidinyl)phenyl]-1,10-phenanthroline] | failed to be obtained |  | 
3 | c1cc(N2CCCC2)c2ccc3c(N4CCCC4)ccnc3c2n1 [Pyrrd-Phen, 4,7-di-1-pyrrolidinyl-1,10-phenanthroline] |  | high water solubility | 59 (≈ 185 µM)
